From US9850273B2, “Combination of estrogens plus antiprogestins with significant partial agonistic effect as an effective treatment of menopausal symptoms and for prevention of the occurrence of breast cancer” (Evestra, Inc., priority 2014, dated 2017)
pEC50, pIC50: −log10 of the molar value. Read-outs that look alike come from different tables or passages of the source.

Experiments:
[1] = target: T1, progesterone receptor (Homo sapiens, UniProt P06401); test: PR transactivation assay, antagonistic activity (PR luciferase reporter); type: cell-based; details: for Ratio of IC50's: PR agonism / PR antagonism
T1 sequence (P06401 165-933 limits assumed): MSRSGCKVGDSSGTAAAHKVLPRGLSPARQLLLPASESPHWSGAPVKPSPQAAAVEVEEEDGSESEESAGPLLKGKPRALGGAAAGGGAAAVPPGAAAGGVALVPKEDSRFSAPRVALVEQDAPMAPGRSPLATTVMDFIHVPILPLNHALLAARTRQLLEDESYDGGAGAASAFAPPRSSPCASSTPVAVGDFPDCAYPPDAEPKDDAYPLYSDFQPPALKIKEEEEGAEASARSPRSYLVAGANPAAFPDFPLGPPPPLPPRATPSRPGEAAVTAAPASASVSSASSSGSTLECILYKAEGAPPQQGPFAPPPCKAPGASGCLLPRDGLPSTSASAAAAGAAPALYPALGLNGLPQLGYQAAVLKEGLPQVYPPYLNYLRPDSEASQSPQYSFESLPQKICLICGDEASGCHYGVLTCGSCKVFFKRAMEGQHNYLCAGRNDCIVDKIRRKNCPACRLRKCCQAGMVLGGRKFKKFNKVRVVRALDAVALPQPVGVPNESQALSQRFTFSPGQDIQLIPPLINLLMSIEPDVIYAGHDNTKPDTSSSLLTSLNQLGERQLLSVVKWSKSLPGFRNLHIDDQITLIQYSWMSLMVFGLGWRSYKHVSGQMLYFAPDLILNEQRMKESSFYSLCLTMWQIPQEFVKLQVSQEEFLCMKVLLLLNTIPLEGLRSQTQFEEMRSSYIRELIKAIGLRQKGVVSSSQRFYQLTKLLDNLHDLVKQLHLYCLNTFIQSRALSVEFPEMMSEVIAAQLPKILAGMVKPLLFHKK
Experimental: (§1) Transactivation Assay for Progesterone Agonist and Antagonistic Activity (See Table 1).
Experimental: PR transactivation studies was carried out in human breast cancer (T47D) cells, grown in RPMI medium without phenol red and 5% charcoal stripped fetal bovine serum, transiently transfected with PR luciferase reporter (CCS-6043L signal reporter assay kit, Qiagen). The cells were stimulated R5020 as PR agonist and treated in the presence or absence of the tested compounds for 24 hours.

[2] = target: T2, progesterone receptor (Homo sapiens, UniProt P06401); test: PR transactivation assay, agonistic activity (PR luciferase reporter); type: cell-based; details: T47D cells; for pEC50: stimulant R5020, read-out: EC50
T2 sequence (P06401 679-933 limits assumed): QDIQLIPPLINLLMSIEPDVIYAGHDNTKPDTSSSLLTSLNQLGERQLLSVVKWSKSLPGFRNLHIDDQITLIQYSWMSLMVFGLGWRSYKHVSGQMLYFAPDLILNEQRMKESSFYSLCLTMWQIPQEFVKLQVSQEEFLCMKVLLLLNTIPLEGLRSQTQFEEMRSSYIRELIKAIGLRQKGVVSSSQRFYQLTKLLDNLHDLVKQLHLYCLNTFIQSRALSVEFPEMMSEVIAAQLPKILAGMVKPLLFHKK
Experimental: as §1
Experimental: PR transactivation studies was carried out in human breast cancer (T47D) cells, grown in RPMI medium without phenol red and 5% charcoal stripped fetal bovine serum, transiently transfected with PR luciferase reporter (CCS-6043L signal reporter assay kit, Qiagen). The cells were stimulated R5020 as PR agonist and treated in the presence or absence of the tested compounds for 24 hours. The effect was calculated using dual luciferase assay kit (Promega, WI)) based on RU486 as full antagonist and R5020 as agonist for progesterone receptor.

[3] = tested on: guinea pig; test: Guinea pig model (ovulation inhibition, uterine weight, vagina, ovary, classification); type: in vivo; details: for Classification: guinea pig model; for ER-/PR balance vagina. / Ovary (CL): at max. dose (10.mg/day s.c.); for Ovary (CL): CL = corpora lutea
[4] = tested on: estradiol-primed immature female rabbits; test: McPhail and anti-McPhail tests in rabbits; type: in vivo, rabbit
Description: The McPhail test in the immature female rabbit is a well-established model to test progestatational and antiprogestational activity [McPhail 1934).

[5] = T47D cells, stimulant R5020, read-out: IC50 Average of 2 expts
[6] = Table 2 summary, read-out: PR antagonism (IC50)

SMILES	Antagonist rel to RU486 (%) ([1]; T47D cells, stimulant R5020)	pIC50 [1, 5]	Agonist rel to R5020 (%) [2] [%]	pEC50 [2]	Ratio of IC50's [1]	pIC50 [1, 6]	ER-/PR balance vagina.: dose at which the dominance is seen ([3]; guinea pig)	Uterine Weight at max. dose (10.mg/day s.c.) ([3]; guinea pig)	progestational activity (McPhail test) ([4]; estradiol-primed immature female rabbit)	antiprogestational activity (anti-McPhail test) ([4]; immature female rabbit)	Ovulation Inhibition ([3]; guinea pig)	Classification [3]	ER-/PR balance vagina. ([3]; guinea pig)	Ovary (CL) ([3]; guinea pig)
CC#C[C@]1(O)CC[C@H]2[C@@H]3CCC4=CC(=O)CCC4=C3[C@@H](c3ccc(N(C)C)cc3)C[C@@]21C [RU-486, reference compound]							≧1.0 mg	(1.26)						
COCC(=O)[C@@]1(OC(C)=O)CC[C@H]2[C@@H]3CCC4=CC(=O)CCC4=C3[C@@H](c3ccc(N(C)C)cc3)C[C@@]21C [CDB-4124, reference compound]	300	9.15	1.4	7.60	30.7	9.15		1.41	did not exhibit any progestational activity	higher antiprogestational activity than RU 486	≦10.0 mg	PR-antagonist	ER-domin.	deg. &
CC[C@@H]1CC2C3CCC4=CC(=O)CCC4=C3[C@@H](c3ccc(-c4cccnc4)cc3)C[C@]2(C)C1C(C)=O (stereo partly drawn) [EC-342, 11β-{4′-[3′-pyridinyl)phenyl}-16α-ethyl-19-norpregna-4,9-diene-3,20-dione]	120	9.02	7	8.29	5.7	9.02		0.86				mesoprogestin	PR-domin	degenerated

The next lines start with results.

Antagonist rel to RU486 (%) ([1]; T47D cells, stimulant R5020)	pIC50 [1, 5]	Agonist rel to R5020 (%) [2] [%]	pEC50 [2]	Ratio of IC50's [1]	pIC50 [1, 6]	SMILES	ER-/PR balance vagina.: dose at which the dominance is seen ([3]; guinea pig)	Uterine Weight at max. dose (10.mg/day s.c.) ([3]; guinea pig)	progestational activity (McPhail test) ([4]; estradiol-primed immature female rabbit)	antiprogestational activity (anti-McPhail test) ([4]; immature female rabbit)	Ovulation Inhibition ([3]; guinea pig)	Classification [3]	ER-/PR balance vagina. ([3]; guinea pig)	Ovary (CL) ([3]; guinea pig)
120	9.00	0.65	7.31			C=C[C@@H]1CC2C3CCC4=CC(=O)CCC4=C3[C@@H](c3ccc(-c4ccoc4)cc3)C[C@]2(C)C1C(C)=O (stereo partly drawn) [EC345, 11β-{4′-[3′-furanyl)phenyl}-16α-ethenyl-19-norpregna-4,9-diene-3,20-dione]								
21.8	8.30	7	8.30	1.0	8.30	C=C1CCOC12CCC1C3CCC4=CC(=O)CCC4=C3[C@@H](c3ccc(-n4ccnc4)cc3)C[C@@]12C (stereo partly shown) [EC336]								
	9.21		8.31		9.21	COC[C@]1(OC)CC[C@H]2[C@@H]3CCC4=CC(=O)CCC4=C3[C@@H](c3ccc(/C=N/O)cc3)C[C@@]21C [ASOPRISNIL, reference compound]								
255.3	9.34	0.35		217.3	9.34	C[C@]12C[C@H](c3ccc(-n4ccnc4)cc3)C3=C4CCC(=O)C=C4CCC3C1CC[C@@]2(O)C(F)(F)C(F)(F)F (stereo partly shown) [EC-317]								
